# Test results from ChEMBL document CHEMBL4715697, “Synthesis and biological activity of benzamide DNA minor groove binders” (2016).
# Legend:
# Format in all cases: functional
# [1] = system: MOLT-4; assay: Growth inhibition of human MOLT-4 cells assessed as cell growth at 1 uM incubated for 48 hrs by sulforhodamine B assay relative to control; conditions: read-out: Activity
# [2] = system: M14; assay: Growth inhibition of human M14 cells assessed as cell growth at 100 uM incubated for 48 hrs by sulforhodamine B assay relative to control; conditions: read-out: Activity
# [3] = system: EKVX; assay: Growth inhibition of human EKVX cells assessed as cell growth at 0.01 uM incubated for 48 hrs by sulforhodamine B assay relative to control; conditions: read-out: Activity
# [4] = system: SF-539; assay: Growth inhibition of human SF-539 cells assessed as cell growth at 100 uM incubated for 48 hrs by sulforhodamine B assay relative to control; conditions: read-out: Activity
# [5] = system: TK-10; assay: Growth inhibition of human TK-10 cells assessed as cell growth at 0.1 uM incubated for 48 hrs by sulforhodamine B assay relative to control; conditions: read-out: Activity
# [6] = system: Hs-578T; assay: Growth inhibition of human Hs-578T cells assessed as cell growth at 0.1 uM incubated for 48 hrs by sulforhodamine B assay relative to control; conditions: read-out: Activity
# [7] = system: SF-539; assay: Growth inhibition of human SF-539 cells assessed as cell growth at 0.1 uM incubated for 48 hrs by sulforhodamine B assay relative to control; conditions: read-out: Activity
# [8] = system: HL-60(TB); assay: Growth inhibition of human HL-60(TB) cells assessed as cell growth at 100 uM incubated for 48 hrs by sulforhodamine B assay relative to control; conditions: read-out: Activity
# [9] = system: SK-MEL-2; assay: Growth inhibition of human SK-MEL-2 cells incubated for 48 hrs by sulforhodamine B assay
# [10] = system: RXF 393; assay: Growth inhibition of human RXF 393 cells assessed as cell growth at 100 uM incubated for 48 hrs by sulforhodamine B assay relative to control; conditions: read-out: Activity
# [11] = system: UO-31; assay: Growth inhibition of human UO-31 cells incubated for 48 hrs by sulforhodamine B assay
# [12] = system: NCI-H226; assay: Growth inhibition of human NCI-H226 cells assessed as cell growth at 1 uM incubated for 48 hrs by sulforhodamine B assay relative to control; conditions: read-out: Activity
# [13] = system: CCRF-CEM; assay: Growth inhibition of human CCRF-CEM cells assessed as cell growth at 0.01 uM incubated for 48 hrs by sulforhodamine B assay relative to control; conditions: read-out: Activity
# [14] = system: A498; assay: Growth inhibition of human A498 cells incubated for 48 hrs by sulforhodamine B assay
# [15] = system: ACHN; assay: Growth inhibition of human ACHN cells incubated for 48 hrs by sulforhodamine B assay
# [16] = system: DU-145; assay: Growth inhibition of human DU-145 cells assessed as cell growth at 100 uM incubated for 48 hrs by sulforhodamine B assay relative to control; conditions: read-out: Activity
# [17] = system: K562; assay: Growth inhibition of human K562 cells incubated for 48 hrs by sulforhodamine B assay
# [18] = system: HCC 2998; assay: Growth inhibition of human HCC 2998 cells assessed as cell growth at 100 uM incubated for 48 hrs by sulforhodamine B assay relative to control; conditions: read-out: Activity
# [19] = system: ACHN; assay: Growth inhibition of human ACHN cells assessed as cell growth at 100 uM incubated for 48 hrs by sulforhodamine B assay relative to control; conditions: read-out: Activity
# [20] = system: SK-MEL-2; assay: Growth inhibition of human SK-MEL-2 cells assessed as cell growth at 0.01 uM incubated for 48 hrs by sulforhodamine B assay relative to control; conditions: read-out: Activity
# [21] = system: LOX IMVI; assay: Growth inhibition of human LOX IMVI cells assessed as cell growth at 1 uM incubated for 48 hrs by sulforhodamine B assay relative to control; conditions: read-out: Activity
# [22] = system: SN12C; assay: Growth inhibition of human SN12C cells assessed as cell growth at 1 uM incubated for 48 hrs by sulforhodamine B assay relative to control; conditions: read-out: Activity
# [23] = system: ACHN; assay: Growth inhibition of human ACHN cells assessed as cell growth at 0.01 uM incubated for 48 hrs by sulforhodamine B assay relative to control; conditions: read-out: Activity
# [24] = system: RPMI-8226; assay: Growth inhibition of human RPMI-8226 cells assessed as cell growth at 1 uM incubated for 48 hrs by sulforhodamine B assay relative to control; conditions: read-out: Activity
# [25] = system: SK-MEL-5; assay: Growth inhibition of human SK-MEL-5 cells assessed as cell growth at 1 uM incubated for 48 hrs by sulforhodamine B assay relative to control; conditions: read-out: Activity
# [26] = system: NCI-H322M; assay: Growth inhibition of human NCI-H322M cells assessed as cell growth at 1 uM incubated for 48 hrs by sulforhodamine B assay relative to control; conditions: read-out: Activity
# [27] = system: CCRF-CEM; assay: Growth inhibition of human CCRF-CEM cells incubated for 48 hrs by sulforhodamine B assay
# [28] = system: OVCAR-4; assay: Growth inhibition of human OVCAR-4 cells incubated for 48 hrs by sulforhodamine B assay
# [29] = system: Hs-578T; assay: Growth inhibition of human Hs-578T cells assessed as cell growth at 0.01 uM incubated for 48 hrs by sulforhodamine B assay relative to control; conditions: read-out: Activity
# [30] = system: SK-OV-3; assay: Growth inhibition of human SK-OV-3 cells assessed as cell growth at 100 uM incubated for 48 hrs by sulforhodamine B assay relative to control; conditions: read-out: Activity
# [31] = system: NCI-H322M; assay: Growth inhibition of human NCI-H322M cells assessed as cell growth at 0.1 uM incubated for 48 hrs by sulforhodamine B assay relative to control; conditions: read-out: Activity
# [32] = system: COLO 205; assay: Growth inhibition of human COLO 205 cells incubated for 48 hrs by sulforhodamine B assay
# [33] = system: HCT-116; assay: Growth inhibition of human HCT-116 cells assessed as cell growth at 0.01 uM incubated for 48 hrs by sulforhodamine B assay relative to control; conditions: read-out: Activity
# [34] = system: SF-539; assay: Growth inhibition of human SF-539 cells assessed as cell growth at 1 uM incubated for 48 hrs by sulforhodamine B assay relative to control; conditions: read-out: Activity
# [35] = read-out: LC50 (the source's name)
# [36] = read-out: pLC50 (the source's name) (converted)
structure (smiles),measurement,setting,value
CC(=O)Nc1cc(CCl)cc(NC(=O)c2ccc(C(=O)Nc3cccc(NC(=O)CCCN(C)C)c3)cc2)c1,growth at 1 µM,[1],99%
same,growth at 100 µM,[2],91%
same,growth at 0.01 µM,[3],93%
same,growth at 100 µM,[4],112%
same,growth at 0.1 µM,[5],106%
same,growth at 0.1 µM,[6],116%
same,growth at 0.1 µM,[7],103%
same,growth at 100 µM,[8],90%
same,GI50,[9]; read-out: GI50,> 100 µM
same,CC50,[9]; [35],> 100 µM
same,TGI,[9]; read-out: TGI,> 100 µM
same,GI50,[9]; read-out: pGI50 (converted),> 100 µM
same,CC50,[9]; [36],> 100 µM
same,TGI,[9]; read-out: pTGI,> 100 µM
same,growth at 100 µM,[10],96%
same,GI50,[11]; read-out: GI50,> 100 µM
same,CC50,[11]; [35],> 100 µM
same,TGI,[11]; read-out: TGI,> 100 µM
same,GI50,[11]; read-out: pGI50 (converted),> 100 µM
same,CC50,[11]; [36],> 100 µM
same,TGI,[11]; read-out: pTGI,> 100 µM
same,growth at 1 µM,[12],91%
same,growth at 0.01 µM,[13],107%
same,GI50,[14]; read-out: GI50,> 100 µM
same,LC50 (concentration giving 50% net cell kill),[14]; read-out: LC50,> 100 µM
same,TGI,[14]; read-out: TGI,> 100 µM
same,GI50,[14]; read-out: pGI50 (converted),> 100 µM
same,LC50 (concentration giving 50% net cell kill),[14]; read-out: pLC50 (converted),> 100 µM
same,TGI,[14]; read-out: pTGI,> 100 µM
same,GI50,[15]; read-out: GI50,> 100 µM
same,CC50,[15]; [35],> 100 µM
same,TGI,[15]; read-out: TGI,> 100 µM
same,GI50,[15]; read-out: pGI50 (converted),> 100 µM
same,CC50,[15]; [36],> 100 µM
same,TGI,[15]; read-out: pTGI,> 100 µM
same,growth at 100 µM,[16],94%
same,GI50,[17]; read-out: GI50,> 100 µM
same,CC50,[17]; [35],> 100 µM
same,TGI,[17]; read-out: TGI,> 100 µM
same,GI50,[17]; read-out: pGI50 (converted),> 100 µM
same,CC50,[17]; [36],> 100 µM
same,TGI,[17]; read-out: pTGI,> 100 µM
same,growth at 100 µM,[18],93%
same,growth at 100 µM,[19],104%
same,growth at 0.01 µM,[20],107%
same,growth at 1 µM,[21],86%
same,growth at 1 µM,[22],105%
same,growth at 0.01 µM,[23],105%
same,growth at 1 µM,[24],116%
same,growth at 1 µM,[25],93%
same,growth at 1 µM,[26],100%
same,GI50,[27]; read-out: GI50,22.4 µM
same,CC50,[27]; [35],78.2 µM
same,TGI,[27]; read-out: TGI,41.8 µM
same,GI50,[27]; read-out: pGI50 (converted),22.4 µM
same,CC50,[27]; [36],77.6 µM
same,TGI,[27]; read-out: pTGI (converted),41.7 µM
same,GI50,[28]; read-out: GI50,> 100 µM
same,LC50 (concentration killing 50% of cells),[28]; read-out: LC50,> 100 µM
same,TGI,[28]; read-out: TGI,> 100 µM
same,GI50,[28]; read-out: pGI50 (converted),> 100 µM
same,LC50 (concentration killing 50% of cells),[28]; read-out: pLC50 (converted),> 100 µM
same,TGI,[28]; read-out: pTGI,> 100 µM
same,growth at 0.01 µM,[29],115%
same,growth at 100 µM,[30],109%
same,growth at 0.1 µM,[31],103%
same,GI50,[32]; read-out: GI50,> 100 µM
same,LC50,[32]; read-out: LC50,> 100 µM
same,TGI,[32]; read-out: TGI,> 100 µM
same,GI50,[32]; read-out: pGI50 (converted),> 100 µM
same,LC50,[32]; read-out: pLC50 (converted),> 100 µM
same,TGI,[32]; read-out: pTGI,> 100 µM
same,growth at 0.01 µM,[33],109%
same,growth at 1 µM,[34],104%
